According to BindingDB's records for patent US9180116 (Cayman Chemical, 2015):

Legend:
Conditions in all cases: 37 °C
[1] = target: T1, Prostaglandin E2 receptor EP4 subtype (Rattus norvegicus, UniProt P43114); assay: SEAP Activity Assay
Method: (§1) 1. Seed cells on an EP2 or EP4 STEP plate at a density of 40,000-80,000 cells/well in 200 ul of reduced serum medium containing 0.5% FBS. Place the plate in a 37° C. incubator with 5% CO2 and incubate overnight. 2. After 16-18 hours of incubation, aspirate the culture media from each well. 3. Add 200 ul of culture medium containing different concentration of test compounds to the assigned wells. For each test compound, at least 8 concentrations starting at highest 10 M and lowest 0.01 pM were tested. In addition each concentration had triplicates. […] 4. […] Cover the plate with the lid.

[2] = target: Prostaglandin E2 receptor EP2 subtype (Rattus norvegicus, UniProt Q62928); assay: SEAP Activity Assay
Method: as §1

[3] = target: T1, Prostaglandin E2 receptor EP4 subtype; assay: cAMP Assay
Method: Seed cells on an EP2 or EP4 STEP plate at a density of 40,000-80,000 cells/well in 200 uL of reduced serum medium containing 0.5% FBS. Place the plate in a 37° C. incubator with 5% CO2 and incubate overnight. […] After 16-18 hours of incubation, aspirate the culture media from each well. […] Add 200 ul of culture medium containing 500 uM IBMX (an inhibitor of cAMP phosphodiesterase) and different concentration of test compounds to the assigned wells. For each test compound, at least 8 concentrations starting at highest 10 M and lowest 0.01 pM were tested. In addition each concentration had triplicates. […] Incubate the cells in a cell culture incubator for 30 minutes. […] Centrifuge the plate at 1,000x rpm for 10 minutes. […] Aspirate the supernatant.

T1 sequence (P43114 whole entry): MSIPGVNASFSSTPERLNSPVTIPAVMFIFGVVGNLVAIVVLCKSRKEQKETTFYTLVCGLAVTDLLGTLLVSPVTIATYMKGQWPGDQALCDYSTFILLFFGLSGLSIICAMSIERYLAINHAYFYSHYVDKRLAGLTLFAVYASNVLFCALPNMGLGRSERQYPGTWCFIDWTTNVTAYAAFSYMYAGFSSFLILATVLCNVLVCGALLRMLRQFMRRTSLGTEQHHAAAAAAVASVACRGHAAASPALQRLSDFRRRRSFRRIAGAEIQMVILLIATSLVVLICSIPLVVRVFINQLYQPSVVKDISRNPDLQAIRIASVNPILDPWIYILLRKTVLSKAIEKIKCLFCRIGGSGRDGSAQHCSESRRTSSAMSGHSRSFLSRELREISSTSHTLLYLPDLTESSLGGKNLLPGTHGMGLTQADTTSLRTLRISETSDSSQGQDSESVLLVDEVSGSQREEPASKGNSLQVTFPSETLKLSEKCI
Prostaglandin E2 receptor EP2 subtype, sequence (Q62928 whole entry): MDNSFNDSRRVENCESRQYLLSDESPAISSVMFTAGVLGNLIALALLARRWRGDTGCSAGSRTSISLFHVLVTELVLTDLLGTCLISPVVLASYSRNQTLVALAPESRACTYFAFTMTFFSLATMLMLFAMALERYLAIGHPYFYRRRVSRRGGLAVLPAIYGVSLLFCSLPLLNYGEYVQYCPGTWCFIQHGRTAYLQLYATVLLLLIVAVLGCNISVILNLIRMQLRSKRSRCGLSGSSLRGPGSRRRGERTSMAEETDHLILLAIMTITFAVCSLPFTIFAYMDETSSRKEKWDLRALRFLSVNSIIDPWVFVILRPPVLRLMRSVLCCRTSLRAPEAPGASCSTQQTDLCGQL

| SMILES | EC50 [1] [nM] | EC50 [2] [nM] | EC50 [3] [nM] |
| --- | --- | --- | --- |
| CCC#CC[C@H](C)[C@H](O)/C=C/[C@H]1CC(F)(F)C(=O)N1CCCc1ccc(C(=O)O)s1 [US9180116, 24D] | 0.11 | 763 | 0.73 |
| C[C@@H](CCc1ccccc1)[C@H](O)/C=C/[C@H]1CC(F)(F)C(=O)N1CCCc1ccc(C(=O)O)s1 [US9180116, 37C] |  |  | 0.15 |
| C[C@@H](CCc1ccccc1)[C@@H](O)/C=C/[C@H]1CC(F)(F)C(=O)N1CCCc1ccc(C(=O)O)s1 [US9180116, 37D] |  | 743 | 198 |
